Source: US20070078096A1, “Buffered drug formulations for transdermal electrotransport delivery” (priority 1997, published 2007)
Values after ≈ are worked out from the molar mass of the structure shown. Where two headings read alike, the source gives them in different places. Residues, ends and D or L forms follow the SMILES beside them.

Tests used:
[1] = Conductivity of dipeptides at their pI; type: physicochemical
Text: (§1) Table 1 lists conductivities and solubilities of selected dipeptides useful in the present invention, at their pI.

[2] = Solubility of dipeptides at their pI; type: physicochemical
Text: as §1

[3] = pKa, pI and charge distribution of buffers; settings: for % salt: fraction of dipeptide carrying a net charge in aqueous solution at pH equal to pI
Text: At the pI, three species coexist.
In an electric field these negative species move in the opposite direction of their positive associated counterions.
Choice of the dipeptide buffer will be on a case-by-case basis depending on the drug compound and the desired level of pH control and conductivity of the formulation.

[4] = In vivo iontophoresis, pH control of anodic and cathodic buffer gels (Example 2); design: species or system hairless guinea pigs; Ionic strength (approx.): unit not given here; settings: for Anodic pH after 5 h electrotransport / Cathodic pH after 5 h electrotransport: 0.1 mA/cm^2; for pH control of a cathodic electrotransport formulation: for at least 5 hours; for pH control of a cathodic electrotransport formulation / pH control of an anodic electrotransport formulation: dipeptides at their pI
Description: In vivo iontophoresis experiments were performed using custom built electrotransport systems. […] This formulation was separated from the anode electrode by a Sybron ion exchange membrane. […] The cathode-compartment comprised a skin-contacting gel containing the aqueous solution of the buffering agent at the indicated concentration and 3% HEC. This formulation was separated from the cathode electrode by a Nafion ion exchange membrane. […] The electrodes were connected to a DC power source which supplied a constant level of electric current of 0.1 mA/cm^2. Experiments were performed in vivo in hairless guinea pigs. Three animals were used for each condition studied. The electrotransport systems were applied to and removed from the flank of the animals. The two reservoirs were generally spaced about 5 cm apart. The application site was wiped with water prior to system application. pH of the gels was measured prior to application and after removal of the systems using a HORIBA compact pH […]).

[5] = pH stability of formulations with TMAB or SMS during electrotransport (Example 4); type: in vivo, hairless guinea pigs
Text: The effect of the zwitterionic buffer Gly-His and His-Glu on pH stability of formulations containing small molecular weight drug-like compounds during electrotransport to hairless guinea pigs was studied. Trimethylammonium bromide (TMAB) was used as the cationic model drug and sodium methanesulfate (SMS) was used as the model anionic drug.
The electrodes were connected to a DC power source which supplied a constant level of electric current of 0.100 mA/cm^2. The anodic electrode assembly comprised a skin-contacting gel containing the aqueous solution of His-Glu 66 mM or Gly-His 45 mM and TMAB at 50 mM and 3% HEC. This formulation was separated from the silver anode by a Sybron ion exchange membrane. A gel containing 0.15 M sodium chloride (which acted as a chloride source) was placed between the silver anode and the ion exchange membrane. The cathodic electrode assembly comprised a skin-contacting gel containing the aqueous solution of His-Glu 66 mM or Gly-His 45 mM and SMS 50 mM and 3% HEC. The cathodic gel reservoir was separated from the silver chloride cathode by a Nafion ion exchange membrane. A gel containing 0.1 5M sodium chloride was placed between the cathode and the ion exchange membrane. The ionic strength of the skin-contacting gels was 60 mM.
Experiments were performed in vivo in hairless guinea pigs. Two animals were used for each condition studied. The electrotransport systems were applied to and removed from the backs of the animals. The two reservoirs were generally spaced about 5 cm apart. The application site was wiped with 70% isopropyl alcohol wipes prior to system application. Donor reservoir gel pH was measured prior to application and after removal of the systems using a HORIBA compact pH meter (Cardy).

[6] = cathodic gel, prior to application

For C[C@H](NC(=O)[C@@H](N)Cc1cnc[nH]1)C(=O)O [His-Ala] (H-His-Ala-OH), the “Conductivity at 10^−2 Molar” value [1] was 60 μS/cm, the Solubility [2] was 500 mM (≈ 113 mg/mL) and the “pka A” value [3] was 2.48. The pI ([3]; Table 1) was 6.95, the pI ([3]; Table 2) was 6.95 and the “% salt” value [3] was 22%.
For NCCCC[C@H](N)C(=O)N[C@@H](CCC(=O)O)C(=O)O [Lys-Glu] (H-Lys-Glu-OH), the “Conductivity at 10^−2 Molar” value [1] was 8 μS/cm, the Solubility [2] was 500 mM (≈ 138 mg/mL) and the pI ([3]; Table 1) was 6.06. For the same compound, the pI ([3]; Table 2) was 6.06 and the “% salt” value [3] was 3%.
For N[C@@H](Cc1cnc[nH]1)C(=O)N[C@@H](CC(=O)O)C(=O)O [His-Asp] (H-His-Asp-OH), the “Conductivity at 10^−2 Molar” value [1] was 28 μS/cm, the Solubility [2] was 50 mM (≈ 13.5 mg/mL) and the pI ([3]; Table 1) was 5.22. For the same compound, the pI ([3]; Table 2) was 5.22 and the “% salt” value [3] was 11%.
In the case of N[C@@H](Cc1cnc[nH]1)C(=O)NCC(=O)O [His-Gly] (H-His-Gly-OH), the “Conductivity at 10^−2 Molar” value [1] is reported as 40 μS/cm, the Solubility [2] is reported as 1000 mM (≈ 212 mg/mL) and the “pka A” value [3] is reported as 2.41. The pI ([3]; Table 1) was 6.90, the pI ([3]; Table 2) was 6.90 and the “% salt” value [3] was 16%.
For CC(C)[C@H](N)C(=O)N[C@@H](Cc1cnc[nH]1)C(=O)O [Val-His] (H-Val-His-OH), the “Conductivity at 10^−2 Molar” value [1] was 94 μS/cm, the Solubility [2] was 200 mM (≈ 50.9 mg/mL) and the “pka A” value [3] was 3.09. The pI ([3]; Table 1) was 7.38, the pI ([3]; Table 2) was 7.38 and the “% salt” value [3] was 34%.
In the case of NCCCC[C@H](NC(=O)[C@@H](N)CCC(=O)O)C(=O)O [Glu-Lys] (H-Glu-Lys-OH), the “Conductivity at 10^−2 Molar” value [1] is reported as 6 μS/cm, the Solubility [2] is reported as 1000 mM (≈ 275 mg/mL) and the pI ([3]; Table 1) is reported as 6.00. For the same compound, the pI ([3]; Table 2) was 6.00 and the “% salt” value [3] was 2%.
For NCCCC[C@H](N)C(=O)N[C@@H](CC(=O)O)C(=O)O [Lys-Asp] (H-Lys-Asp-OH), the “Conductivity at 10^−2 Molar” value [1] was 6 μS/cm, the Solubility [2] was 1000 mM (≈ 261 mg/mL) and the pI ([3]; Table 1) was 6.08. For the same compound, the pI ([3]; Table 2) was 6.08 and the “% salt” value [3] was 2%.
For O=P(O)(O)O [phosphate, phosphoric acid, reference compound], the “Ionic strength (approx.)” value ([4]; Table 3, anodic buffer gel, listed as Phosphate 10 mM) was roughly 0.015, the “Ionic strength (approx.)” value ([4]; Table 3, anodic buffer gel, listed as Phosphate 33 mM) was roughly 0.05 and the “Ionic strength (approx.)” value ([4]; Table 3, anodic buffer gel, listed as Phosphate 100 mM) was roughly 0.15. The “Ionic strength (approx.)” value ([4]; Table 4, cathodic buffer gel) was roughly 0.015, the “Anodic pH after 5 h electrotransport” value ([4]; anodic gel, listed as Phosphate 33 mM) was 3.3 and the “Anodic pH after 5 h electrotransport” value ([4]; anodic gel, listed as Phosphate 100 mM) was 6.5. For the same compound, the “Initial pH” value ([4]; anodic gel, prior to application, listed as Phosphate 10 mM) was 6.9, the “Initial pH” value ([4]; anodic gel, prior to application, listed as Phosphate 33 mM) was 6.9 and the “Initial pH” value ([4]; anodic gel, prior to application, listed as Phosphate 100 mM) was 6.8. The “Cathodic pH after 5 h electrotransport” value ([4]; cathodic gel) was 4.2, the “Initial pH” value [4, 6] was 6.9 and the “pH control of a cathodic electrotransport formulation” value [4] was “lack of stability”. The “pH control of an anodic electrotransport formulation” value ([4]; for several hours) was “lack of stability”.
In the case of N[C@@H](Cc1cnc[nH]1)C(=O)N[C@@H](CCC(=O)O)C(=O)O [His-Glu] (H-His-Glu-OH), the “Conductivity at 10^−2 Molar” value [1] is reported as 40 μS/cm, the Solubility [2] is reported as 400 mM (≈ 114 mg/mL) and the pI [3] is reported as 5.2. For the same compound, the pI ([3]; Table 1) was 5.20, the pI ([3]; Table 2) was 5.20 and the “species presenting a net charge (salt form) at the pI” value ([3]; at pI) was “about 15%”. The “% salt” value [3] was 15%, the “pH after 24 h electrotransport” value ([4]; Anode, listed as His-Glu 100 mM) was 5.5 and the “pH after 24 h electrotransport” value ([4]; Anode, listed as His-Glu 250 mM) was 5.4. For the same compound, the “pH after 24 h electrotransport” value ([4]; Cathode, listed as His-Glu 100 mM) was 5.4, the “pH after 24 h electrotransport” value ([4]; Cathode, listed as His-Glu 250 mM) was 5.2 and the “Ionic strength (approx.)” value ([4]; Table 3, anodic buffer gel, listed as His-Glu 100 mM) was roughly 0.015. The “Ionic strength (approx.)” value ([4]; Table 3, anodic buffer gel, listed as His-Glu 250 mM) was roughly 0.037, the “Ionic strength (approx.)” value ([4]; Table 4, cathodic buffer gel, listed as His-Glu 100 mM) was roughly 0.015 and the “Ionic strength (approx.)” value ([4]; Table 4, cathodic buffer gel, listed as His-Glu 250 mM) was roughly 0.037. The “Initial pH” value ([4]; Table 5, Anode, listed as His-Glu 100 mM) was 5.1, the “Initial pH” value ([4]; Table 5, Anode, listed as His-Glu 250 mM) was 5.2 and the “Initial pH” value ([4]; Table 5, Cathode) was 5.3. The “Anodic pH after 5 h electrotransport” value ([4]; anodic gel) was 5.2, the “Initial pH” value ([4]; anodic gel, prior to application, listed as His-Glu 100 mM) was 5.1 and the “Initial pH” value ([4]; anodic gel, prior to application, listed as His-Glu 250 mM) was 5.2. For the same compound, the “Cathodic pH after 5 h electrotransport” value ([4]; cathodic gel) was 5.0, the “Initial pH” value [4, 6] was 5.3 and the “pH control of electrotransport formulations” value ([4]; electrotransport experiments in animals, at their pI, for several hours) was “capable of assuring pH control”. For the same compound, the “pH control of a cathodic electrotransport formulation” value [4] was “capable of assuring pH control”, the “pH control of an anodic electrotransport formulation” value ([4]; for several hours) was “capable of assuring pH control” and the “pH control of anodic and cathodic electrotransport formulations” value ([4]; for up to 24 hours, at their pI) was “capable of assuring pH control”. The “Final pH” value ([5]; Anode, drug TMAB 50 mM) was 5.3, the “Initial pH” value ([5]; Anode, drug TMAB 50 mM) was 5.1 and the “Final pH” value ([5]; Cathode, drug SMS 50 mM) was 6.0. For the same compound, the “Initial pH” value ([5]; Cathode, drug SMS 50 mM) was 5.2 and the “pH control with TMAB or SMS” value ([5]; all experimental conditions tested (Table 7)) was “good pH control”.
With O=S(=O)(O)CCCN1CCOCC1 [MOPS, 3-[N-morpholino]propanesulphonic acid, reference compound] the pI [3] was 4, the “buffering capacity at its pI” value ([3]; at pI) was “does not present any buffering capacity” and the “conductivity of solutions at its pI” value ([3]; at pI) was “non-conductive”. The “net charge at pH 7” value ([3]; pH 7) was −0.5, the “Ionic strength (approx.)” value ([4]; Table 3, anodic buffer gel) was roughly 0.01 and the “Ionic strength (approx.)” value ([4]; Table 4, cathodic buffer gel) was roughly 0.01. The “Anodic pH after 5 h electrotransport” value ([4]; anodic gel) was 4.1, the “Initial pH” value ([4]; anodic gel, prior to application) was 7.0 and the “Cathodic pH after 5 h electrotransport” value ([4]; cathodic gel) was 5.4. The “Initial pH” value [4, 6] was 7.0, the “pH control of a cathodic electrotransport formulation” value [4] was “lack of stability” and the “pH control of an anodic electrotransport formulation” value ([4]; for several hours) was “lack of stability”.
